Where two headings read alike, the source gives them in different places.

One assay concerns the target T1, hMeprin β (Homo sapiens, UniProt Q16820).
T1 sequence (Q16820 62-701): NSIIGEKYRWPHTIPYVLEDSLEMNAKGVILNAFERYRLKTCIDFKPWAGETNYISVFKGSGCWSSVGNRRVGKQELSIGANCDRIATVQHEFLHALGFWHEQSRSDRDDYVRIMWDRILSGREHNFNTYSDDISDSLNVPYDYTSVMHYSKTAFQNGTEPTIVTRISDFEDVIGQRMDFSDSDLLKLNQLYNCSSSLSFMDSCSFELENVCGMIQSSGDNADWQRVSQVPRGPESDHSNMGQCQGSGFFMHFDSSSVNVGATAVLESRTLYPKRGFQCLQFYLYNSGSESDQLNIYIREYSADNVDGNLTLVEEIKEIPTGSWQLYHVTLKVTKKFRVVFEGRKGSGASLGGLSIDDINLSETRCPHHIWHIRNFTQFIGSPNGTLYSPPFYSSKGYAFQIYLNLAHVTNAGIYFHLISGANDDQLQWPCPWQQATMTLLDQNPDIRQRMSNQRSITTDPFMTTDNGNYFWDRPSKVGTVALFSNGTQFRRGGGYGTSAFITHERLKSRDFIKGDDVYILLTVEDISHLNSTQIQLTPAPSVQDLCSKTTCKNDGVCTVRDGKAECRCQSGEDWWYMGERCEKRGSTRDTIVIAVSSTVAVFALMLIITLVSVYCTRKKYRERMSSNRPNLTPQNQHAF
Kind of assay: Enzymatic assay, cleavage of internally quenched peptide substrate, hMeprin β. Format: biochemical. The protocol:
(§1) A typical assay of 250 μl total volume measured in black 96 well plates consisted of 100 μl buffer, 50 μl enzyme at a final concentration of 5e-8 M to 5e-9 M, 50 μl substrate (0.15 to 80 μM, in buffer, 0.5% DMSO) and 50 μl inhibitor solution (in buffer, 1% DMSO). In case of 125 μl assay volume (black 96 half area well plates) all volumes were cut in half. Enzymatic activity of ADAMs was measured in 384 well plates with 60 μl total assay volume consisting of 20 μl inhibitor, 20 μl buffer, 10 μl enzyme and 10 μl substrate.
(§2) Ki values were assessed combining 4 substrate concentrations (5-40 μM) with at least 5 inhibitor concentrations. […] Initial velocities were determined and converted into concentration units applying a standard curve obtained after complete conversion of different substrate concentrations under assay conditions. All measurements were performed using a fluorescence plate reader (FLUOstar OPTIMA, BMG Labtech) at 30° C. The kinetic parameters were determined at least in duplicates on separate days. The excitation/emission wavelength was 340/420 nm. The kinetic data was evaluated using GraFit software (version 7.0.3, Erithacus Software).
(§3) The following compounds according to the present invention were synthesized using the above general procedures. IC50 refers to the average IC50 values measured as described above, SD (IC50) refers to the standard deviation of the average IC50 values, Ki refers to the average K; values measured as described above, and SD (Ki) to the standard deviation of the average Ki values.

A further assay addresses T2, hMeprin α (Homo sapiens, UniProt Q16819).
T2 sequence (Q16819 66-746): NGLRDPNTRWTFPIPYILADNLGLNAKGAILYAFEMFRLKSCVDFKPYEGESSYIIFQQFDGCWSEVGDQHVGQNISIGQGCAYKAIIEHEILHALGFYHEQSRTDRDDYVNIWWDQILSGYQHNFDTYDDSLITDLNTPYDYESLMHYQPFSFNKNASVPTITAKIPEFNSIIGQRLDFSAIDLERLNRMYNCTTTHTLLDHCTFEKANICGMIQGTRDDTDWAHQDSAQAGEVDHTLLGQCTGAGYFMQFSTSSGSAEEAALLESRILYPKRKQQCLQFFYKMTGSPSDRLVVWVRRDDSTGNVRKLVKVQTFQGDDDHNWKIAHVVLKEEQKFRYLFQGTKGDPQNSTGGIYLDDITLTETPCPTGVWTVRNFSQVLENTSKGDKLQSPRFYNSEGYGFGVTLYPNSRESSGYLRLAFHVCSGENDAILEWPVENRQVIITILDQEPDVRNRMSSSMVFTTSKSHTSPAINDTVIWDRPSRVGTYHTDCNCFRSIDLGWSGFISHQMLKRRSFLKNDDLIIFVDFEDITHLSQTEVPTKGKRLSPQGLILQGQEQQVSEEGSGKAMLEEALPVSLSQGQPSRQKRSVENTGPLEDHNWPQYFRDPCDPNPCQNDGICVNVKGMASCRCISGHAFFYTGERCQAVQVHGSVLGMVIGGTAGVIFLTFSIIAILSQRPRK
Kind of assay: biochemical. Type of assay: biochemical. The protocol: as §1, §2, §3

Where [1] appears, read: average IC50, 10 μM substrate, 30° C., 40 mM Tris pH 8.0, read-out: Meprin Beta IC50.
[2] abbreviates: average IC50, 10 μM substrate, 30° C., 40 mM HEPES pH 7.4, read-out: Meprin Alpha IC50.
Where [3] appears, read: average Ki, 4 substrate concentrations (5-40 μM), 30° C., 40 mM HEPES pH 7.4, read-out: Meprin Alpha Ki.

For `O=C(O)CC[C@@H](NCc1cccc(C(=O)O)c1)C(=O)NO` [Example 44, 3-[[[(1R)-3-carboxy-1-(hydroxycarbamoyl)-propyl]amino]methyl]benzoic acid], the affinity on hMeprin β corresponds to a Ki of 0.277 µM. The IC50 on hMeprin β (setting [1]) was found to be 0.768 µM; on hMeprin α (setting [2]), 32.1 µM.
The corresponding values for `O=C(O)C[C@H](NCc1cccc(C(=O)O)c1)C(=O)NO` [Example 45, 3-[[[(1S)-1-(carboxymethyl)-2-(hydroxyamino)-2-oxo-ethyl]amino]methyl]benzoic acid] are 0.644 µM, 1.32 µM and 60.4 µM.
The corresponding values for `O=C(O)C[C@@H](NCc1cccc(C(=O)O)c1)C(=O)NO` [Example 46, 3-[[[(1R)-1-(carboxymethyl)-2-(hydroxyamino)-2-oxo-ethyl]amino]methyl]benzoic acid] are 0.254 µM, 0.548 µM and 15.1 µM.
As for `O=C(CN(Cc1ccc(F)c(O)c1F)Cc1ccc(F)c(O)c1F)NO` [Example 47, 2-[bis[(2,4-difluoro-3-hydroxy-phenyl)-methyl]amino]ethanehydroxamic acid], the Ki was 0.012 µM on hMeprin β and 0.189 µM at hMeprin α (setting [3]). The IC50 on hMeprin β (setting [1]) is 0.023 µM; on hMeprin α (setting [2]), 0.626 µM.
As for `O=C(CN(Cc1cc(F)c(O)c(F)c1)Cc1cc(F)c(O)c(F)c1)NO` [Example 48, 2-[bis[(3,5-difluoro-4-hydroxy-phenyl)methyl]-amino]ethanehydroxamic acid], the Ki at hMeprin β turned out to be 0.118 µM; at hMeprin α (setting [3]) it was 0.263 µM. The IC50 was found to be 0.272 µM on hMeprin β (setting [1]) and 1.3 µM at hMeprin α (setting [2]).
Turning to `O=C(CN(Cc1c(F)ccc(O)c1F)Cc1c(F)ccc(O)c1F)NO` [Example 49, 2-[bis[(2,6-difluoro-3-hydroxy-phenyl)methyl]-amino]ethanehydroxamic acid], the Ki on hMeprin β was 1.96 µM; at hMeprin α, 0.998 µM. The concentration for half-maximal inhibition (IC50) on hMeprin β (setting [1]) was 5.51 µM; on hMeprin α, 5.6 µM.
For `O=C(CN(Cc1ccc(F)c(O)c1)Cc1ccc(F)c(O)c1)NO` [Example 50, 2-[bis[(4-fluoro-3-hydroxy-phenyl)methyl]-amino]ethanehydroxamic acid], the Ki on hMeprin β came out at 0.352 µM; on hMeprin α (setting [3]) it was 0.306 µM. Moreover, the results for the half-maximal inhibitory concentration (IC50) at hMeprin β (setting [1]) and at hMeprin α (setting [2]) were 1.06 µM and 0.986 µM, respectively.
Consider `O=C(CN(Cc1cccc(O)c1F)Cc1cccc(O)c1F)NO` [Example 51, 2-[bis[(2-fluoro-3-hydroxy-phenyl)methyl]-amino]ethanehydroxamic acid], for which the inhibition constant (Ki) on hMeprin β amounted to 1.17 µM; on hMeprin α (setting [3]) it was 0.335 µM. Further, the IC50 was 2.91 µM at hMeprin β (setting [1]) and 1.21 µM at hMeprin α (setting [2]).
Regarding `O=C(CN(Cc1ccc(Cl)c(O)c1F)Cc1ccc(Cl)c(O)c1F)NO` [Example 52, 2-[bis[(4-chloro-2-fluoro-3-hydroxy-phenyl)-methyl]amino]ethanehydroxamic acid], the Ki amounted to 0.008 µM at hMeprin β and 0.104 µM on hMeprin α (setting [3]).
On to `COc1ccc(CN(CC(=O)NO)Cc2ccc(F)c(O)c2F)cc1` [Example 53, 2-[(2,4-difluoro-3-hydroxy-phenyl)methyl-[(4-methoxyphenyl)methyl]amino]ethanehydroxamic acid], for which the IC50 on hMeprin β worked out at 0.331 µM; at hMeprin α (setting [2]), 0.995 µM. The Ki at hMeprin β was determined as 0.158 µM; on hMeprin α (setting [3]), 0.328 µM.
`CCOC(=O)c1cccc(CN(CC(=O)NO)Cc2cccc(C(=O)OCC)c2)c1` [Example 54, ethyl 3-[[(3-ethoxycarbonylphenyl)methyl-[2-(hydroxyamino)-2-oxo-ethyl]amino]methyl]benzoate] came in with a Ki at hMeprin β of 1.76 µM. The IC50 stood at 94.9 µM on hMeprin β (setting [1]) and 7.27 µM at hMeprin α (setting [2]).
Regarding `COc1c(F)ccc(CN(CC(=O)NO)Cc2ccc(F)c(OC)c2F)c1F` [Example 58, 2-[bis[(2,4-difluoro-3-methoxy-phenyl)methyl]-amino]ethanehydroxamic acid], the figures for the IC50 at hMeprin β (setting [1]) and on hMeprin α (setting [2]) were 18.2 µM and 2.83 µM, respectively. The Ki on hMeprin α (setting [3]) was determined as 0.726 µM.
With `CCOC(=O)c1cccc(CN(CC(=O)NO)Cc2cccc(C(=O)O)c2)c1` [Example 59, 3-[[(3-ethoxycarbonylphenyl)methyl-[2-(hydroxyamino)-2-oxo-ethyl]amino]methyl]benzoic acid], the IC50 against hMeprin β turned out to be 0.839 µM; on hMeprin α (setting [2]), 4.13 µM. The values for the Ki on hMeprin β and on hMeprin α (setting [3]) were 0.271 µM and 1.47 µM, respectively.
For the molecule `O=C(CN(Cc1ccc(Cl)cc1F)Cc1ccc(Cl)cc1F)NO` [Example 60, 2-[bis[(4-chloro-2-fluoro-phenyl)methyl]-amino]ethanehydroxamic acid], the IC50 was determined as 138 µM at hMeprin β and 3.06 µM at hMeprin α (setting [2]). Further, the Ki at hMeprin α (setting [3]) was determined as 0.838 µM.
The corresponding values for `COc1cc(CN(CC(=O)NO)Cc2cc(OC)c(OC)c(OC)c2)cc(OC)c1OC` [Example 61, 2-[bis[(3,4,5-trimethoxyphenyl)methyl]-amino]-ethanehydroxamic acid] are 20.1 µM, 5.32 µM and 1.18 µM.
Consider `O=C(CN(Cc1ccc2c(c1)OCCO2)Cc1ccc2c(c1)OCCO2)NO` [Example 63, 2-[bis(2,3-dihydro-1,4-benzodioxin-6-yl-methyl)amino]ethanehydroxamic acid], for which the IC50 worked out at 30.6 µM at hMeprin β and 1.52 µM at hMeprin α (setting [2]). Besides, the Ki on hMeprin α (setting [3]) came out at 0.297 µM.
Turning to `COc1c(F)ccc(CN(CCC(=O)NO)Cc2ccc(F)c(OC)c2F)c1F` [Example 64, 3-[bis[(2,4-difluoro-3-methoxy-phenyl)methyl]-amino]propanehydroxamic acid], the IC50 was 18.7 µM against hMeprin β and 0.881 µM on hMeprin α (setting [2]). Besides, the Ki at hMeprin α (setting [3]) was 0.332 µM.
For `COc1cc(CN(CCC(=O)NO)Cc2cc(OC)c(OC)c(OC)c2)cc(OC)c1OC` [Example 66, 3-[bis[(3,4,5-trimethoxyphenyl)methyl]amino]-propanehydroxamic acid], the results for the IC50 against hMeprin β and on hMeprin α (setting [2]) were 90 µM and 19.8 µM, respectively.
Take `COc1cc(CN(CC(=O)NO)Cc2cc(OC)c3c(c2)OCO3)cc2c1OCO2` [Example 68, 2-[bis[(7-methoxy-1,3-benzodioxol-5-yl)methyl]amino]ethanehydroxamic acid]: the IC50 amounted to 4.57 µM against hMeprin β and 0.554 µM on hMeprin α (setting [2]). Further, the Ki amounted to 1.82 µM on hMeprin β and 0.164 µM at hMeprin α (setting [3]).
The corresponding values for `O=C(CCN(Cc1ccc2c(c1)OCCO2)Cc1ccc2c(c1)OCCO2)NO` [Example 69, 3-[bis(2,3-dihydro-1,4-benzodioxin-6-ylmethyl)amino]propanehydroxamic acid] are 7.59 µM, 0.4 µM, 3.74 µM and 0.117 µM.
As for `N#Cc1cccc(CN(CCC(=O)NO)Cc2cccc(C#N)c2)c1` [Example 70, 3-[bis[(3-cyanophenyl)methyl]amino]-propanehydroxamic acid], the values for the IC50 on hMeprin β and at hMeprin α (setting [2]) were 33.1 µM and 2.34 µM, respectively. In addition, on hMeprin α (setting [3]), the Ki was 0.696 µM.

The Ki is a dissociation constant, usually derived from enzyme kinetics or from competition with a known ligand. By IC50 is commonly meant the concentration that inhibits the measured activity by half.
